Patent publication US6368788B1 (priority 1987, dated 2002)
Where “and” joins values, the source holds several entries; their conditions need not be identical. Equal entries are not always repeated. Marks after values point to notes of the source that are not given here.

Assays:
neutrophils = experiment: Neutrophil response to proteose peptone and phagocytic activity in CBA mice; assay type: in vivo; conditions: for Phagocytes (%) / Phagocytic Index: induced neutrophils; for Total Number of Cells Induced: neutrophil response to proteose peptone
[1] = tested on: human peripheral blood T-lymphocytes; experiment: OKT4+ and OKT8+ lymphocytes from patients with secondary immunodeficiency after in vitro incubation; assay type: cell-based; conditions: for OKT4^+/OKT8^+ ratio / mean percentage of T-helper (OKT4^+) lymphocytes / mean percentage of T-suppressor (OKT8^+) lymphocytes: 45 minutes at 37° C.
From the text: The effects of L-Glu-L-Trp on human peripheral blood T-lymphocytes was investigated using indirect immunofluorescence microscopy and OKT4 and OKT8 monoclonal antibodies (Ortho, USA) directed to lymphocyte cell surface differentiation antigens. For these studies lymphocytes were isolated from heparinized peripheral blood (25 units heparin/mL) isolated from 18 different donors with inflammatory lung diseases and chronic purulent bronchitis accompanied by a secondary immunodeficiency state. Lymphocytes were prepared by centrifugation on Ficoll-Hypaque, washed, and then incubated in vitro for 45 minutes at 37° C. in the presence (or absence) of L-Glu-L-Trp at concentrations of 1 mg/mL, 0.01 mg/mL, 0.0001 mg/mL. Following incubation the cells were washed with Medium 199 and the percentage of OKT4^+ (T-helper) and OKT8^+ (T-suppressor) lymphocytes determined by indirect immunofluorescent microscopy. The results presented in TABLE 51 show the mean percentages of OKT4^+ and OKT8^+ cells in this group of patients after incubation with Medium 199 (Control), or with L-Glu-L-Trp.

[2] = Acute osteomyelitis in adolescents (Protocol D); assay type: in vivo, human
Experimental: In 29 adolescents with osteomyelitis, 2 μg/kg L-Glu-L-Trp was administered im daily on each of 3-7 consecutive days, depending upon the severity of the infection. The control group consisted of 13 children who received conventional therapy with antibiotics.

[3] = tested on: E-receptors on aged thymocytes; experiment: Expression of E-receptors on aged thymocytes; assay type: cell-based, guinea pigs; conditions: for E-RFC (%): aged thymocytes
From the text: Effects of L-Glu-L-Trp on expression of E-receptors on “aged” thymocytes was investigated in a manner similar to that in EXAMPLE 26, above, but using thymocytes obtained from old male guinea pigs (700-800 g). In aged animals it is recognized that the percentage of thymocytes forming rosettes with rabbit erythrocytes is reduced, and cell surface E-receptors are likewise reduced. For these studies aged thymocytes were isolated in Medium 199 from 42 guinea pigs, and E-RFC determined as described by Stadecker, M. J., et al., J. Immunol. 111(8):4061-4065 (1973), incorporated herein by reference. L-Glu-L-Trp was dissolved in 0.9% (w/v) NaCl and added to cultures of thymocytes at concentrations of 1, 0.01, and 0.0001 mg/ml.

[4] = tested on: peripheral blood lymphocytes; experiment: Protocol A3 Group 1B: atypical pyoderma; assay type: in vivo, human
[5] = tested on: peripheral blood leukocytes
Experimental: Twenty-eight patients (15) having the same disease profile and under conventional treatment formed a control group.
The patients presented with the following diagnosed odontogenic infections: 18 with limited purulent infection(s), 7 with focal infection(s), 3 with diffuse infection(s). In addition, 3 patients presented with destructive osteomyelitis and 15 with plegmons mandible.
All 15 children in the conventional treatment group were evaluated before therapy. Post-treatment measurements were performed with peripheral blood samples that were collected from all the conventional and L-Glu-L-Trp treated children. Fifteen healthy normal children were also evaluated to determine the normal mean values in the respective assays (Normal Healthy Control).

T-lymphocyte function = experiment: Naval specialists with occupational immunologic impairments; assay type: in vivo, human; conditions: 3 daily intranasal doses of 100 mcg
Experimental: A clinical trial was conducted of 152 naval specialists (aged 20-40 years) with evidence of occupational immunologic impairments resulting from their exposure to radiation and occupational toxins in the Kosomolets nuclear submarine sinking off the coast of […]. L-Glu-L-Trp was evaluated for its possible effects on cellular and/or humoral immunity. Approximately 87% of the servicemen entered into the trial had moderate to severely impaired T-lymphocyte functional activity, (i.e., evidenced by decreased LMIR and blastogenesis with Con-A) and reduced neutrophil phagocytic activity (i.e., 30-40% of normal). Immune parameters were determined before and after a routine 21-24 day rest period, during a normal rest/recuperation and training rotation. Servicemen were divided into two groups, the first (control) group received no treatment, and the second (experimental) group of 88 servicemen received three consecutive daily intranasal doses of 100 mcg L-Glu-L-Trp.

Influenza A = conditions: Combined Therapy: Conventional + L-Glu-L-Trp
Experimental: A clinical trial was conducted in a group of 588 patients between the ages of 17-21 years all having a confirmed infection with Influenza A, (i.e., confirmation by either hemagglutination-inhibition or the presence of specific viral antigens).

[6] = Group 1B atypical pyoderma, after L-Glu-L-Trp Therapy (n = 10)
[7] = children, periapical granulomas, L-Glu-L-Trp Combination, After Therapy

L-Glu-L-Trp
Exudate cell concentration (neutrophils; 0.01 mg/kg): 0.9×10^6 | Neutrophil migration and phagocytic activity (neutrophils; 0.01 mg/kg): did not appear to stimulate neutrophil migration | Increase in percentage of phagocytic cells (neutrophils; 1 mg/kg, six day ip pretreatment): 1.5 fold and 1.7 fold | Phagocytes (%) (neutrophils; 0.1 mg/kg (so in the source)): 17.8 ± 1.13% | Phagocytic Index (neutrophils; 0.1 mg/kg (so in the source)): 1.90 ± 0.05 No. bacteria/phagocyte | Phagocytes (%) (neutrophils; 1 mg/kg): 31.5 ± 0.4 % | Phagocytic Index (neutrophils; 1 mg/kg): 1.89 ± 0.03 No. bacteria/phagocyte | Number of neutrophils induced by proteose peptone (neutrophils; ip pretreatment (0.1 mg/kg)): doubled | Total Number of Cells Induced (neutrophils; 0.01 mg/kg ip pretreatment): 50 ×10^6 | Total Number of Cells Induced (neutrophils; 1 mg/kg ip pretreatment): 80* ×10^6 | Neutrophils, Phagocytic Index (neutrophils; treated mice, sterile inflammatory agent): ns | Percentage of detectable OKT8+ T-suppressor cells [1]: did not alter the percentage of detectable OKT 8^+ T-suppressor cells | Percentage of detectable T-helpers (OKT4+) ([1]; 1 and 0.01 mg/mL): increased the percentage of detectable T-helpers | OKT4^+/OKT8^+ ratio ([1]; Dose 0.0001 mg/ml): 1.1 | mean percentage of T-helper (OKT4^+) lymphocytes ([1]; Dose 0.0001 mg/ml): 25.4 ± 2.3 | mean percentage of T-suppressor (OKT8^+) lymphocytes ([1]; Dose 0.0001 mg/ml): 23.1 ± 2.1 | OKT4^+/OKT8^+ ratio ([1]; Dose 0.01 mg/ml): 1.8* | mean percentage of T-helper (OKT4^+) lymphocytes ([1]; Dose 0.01 mg/ml): 39.8 ± 2.4 | mean percentage of T-suppressor (OKT8^+) lymphocytes ([1]; Dose 0.01 mg/ml): 22.7 ± 1.8 | OKT4^+/OKT8^+ ratio ([1]; Dose 1 mg/ml): 1.9* | mean percentage of T-helper (OKT4^+) lymphocytes ([1]; Dose 1 mg/ml): 39.7 ± 2.7 | mean percentage of T-suppressor (OKT8^+) lymphocytes ([1]; Dose 1 mg/ml): 21.4 ± 1.3 | Failure rate (wounds failed to heal) ([2]; 1 of 29): 3% | T-cell counts ([2]; in vivo): nearly doubled | Wounds closed with healing earlier than control group ([2]; in vivo): 2 to 3 days | Fevers resolved sooner ([2]; on the average): 1 to 2 days | Percentage of E-RFC ([3]; 1 mg/mL): statistically significant increase in the percentage of E-RFC | E-RFC (%) ([3]; Conc. 0.0001 mg/ml): 50.3 ± 4.2% | E-RFC (%) ([3]; Conc. 0.01 mg/ml): 47.8 ± 3.9% | E-RFC (%) ([3]; Conc. 1 mg/ml): 54.6 ± 4.2 % | B-Lymphocytes [4, 6]: 0.14 ± 0 ×10^9/L | B-Lymphocytes % Normal Value [4, 6]: (29%) | B-Lymphocytes (%) [4, 6]: 8.5 ± 1% | Basophils (%) [4, 6]: 0.1 ± 0% | Eosinophils (%) [4, 6]: 0.5 ± 1% | Erythrocytes [4, 6]: 4.1 ± 0.1 10^12/L | IgA [4, 6]: 2.21 ± 0 g/L | IgA % Normal Value [4, 6]: (117%) | IgG [4, 6]: 16.6 ± 2 g/L | IgG % Normal Value [4, 6]: (154%) | IgM [4, 6]: 1.64 ± 0 g/L | IgM % Normal Value [4, 6]: (104%) | Leukocytes [4, 6]: 6.2 ± 1 ×10^9/L | Leukocytes % Normal Value [4, 6]: (93%) | Lymphocytes [4, 6]: 2.14 ± 0 ×10^9/L | Lymphocytes % Normal Value [4, 6]: (76%) | Lymphocytes, % [4, 6]: 34.5 ± 4% | Monocytes, % [4, 6]: 2.3 ± 1.6% | Neutrophils, % [4, 6]: 66.5 ± 3.2% | T-Lymphocytes [4, 6]: 0.87 ± 0 ×10^9/L | T-Lymphocytes % Normal Value [4, 6]: (51%) | T-Lymphocytes (%) [4, 6]: 55.1 ± 6% | T-helper [4, 6]: 0.53 ± 0 ×10^9/L | T-helper % Normal Value [4, 6]: (40%) | T-helper (%) [4, 6]: 32.1 ± 3% | T-suppressor [4, 6]: 0.49 ± 0 ×10^9/L | T-suppressor % Normal Value [4, 6]: (126%) | T-suppressor (%) [4, 6]: 23.1 ± 5% | Blast Transform., Con-A ([4]; Group 1B, L-Glu-L-Trp Therapy): 96.1 ± 4 % of PBL | Blast Transform., PHA ([4]; Group 1B, L-Glu-L-Trp Therapy): 87.5 ± 5 % of PBL | Blast Transform., Staph-A ([4]; Group 1B, L-Glu-L-Trp Therapy): 75.3 ± 1 % of PBL | Clinical outcome ([4]; in vivo): did not turn out to be effective clinically | B-Lymphocytes % of Normal Value [5, 7]: (108%) | B-Lymphocytes: No. [5, 7]: 0.67 ± 0.05 10^9/L | IgA [5, 7]: 1.09 ± 0.04 g/L | IgA % Normal Value [5, 7]: (104%) | IgG [5, 7]: 10.78 ± 0.83 g/L | IgG % Normal Value [5, 7]: (117%) | IgM [5, 7]: 0.93 ± 0.07 g/L | IgM % Normal Value [5, 7]: (95%) | LMIR Response: % w/PHA [5, 7]: 14.65 ± 3.11 % | Leukocytes % Normal Value [5, 7]: (97%) | Leukocytes: No. [5, 7]: 6.60 ± 0.39* 10^9/L | Lymphocytes % Normal Value [5, 7]: (36%) | Lymphocytes: No. [5, 7]: 2.37 ± 0.21 10^9/L | T-Lymphocytes % of Normal Value [5, 7]: (98%) | T-Lymphocytes: No. [5, 7]: 1.24 ± 0.11* 10^9/L | T-lymphocyte counts, % of normal levels ([5]; following combination therapy): 98% | T-lymphocyte function, T4/T8 ratio, granulocyte lysosomal cation proteins (T-lymphocyte function): pronounced increase | Increase in T-helper Cells Percentage (Influenza A): 17% | Length of Required Therapy (Influenza A): 7.1 ± 0.3 days | Pharyngitis manifestations (Influenza A): 3.6 ± 0.3 days | Secondary (Pneumonia) Complications (Influenza A): 4.0% | T-helper/T-suppressor Ratio (Influenza A): 2.7 | Tracheitis manifestations (Influenza A): 3.6 ± 0.3 days
